The values below are quoted from earlier work in US20250000794A1, “IMPROVED DRUG PROCESSING METHODS TO INCREASE DRUG LOADING” (BOARD OF REGENTS, THE UNIVERSITY OF TEXAS SYSTEM, priority 2021, published 2025).

For this series the following is noted: water.

For the compound `NCCCC[C@H](N)C(=O)O` [L-lysine], the “Solubility (g/100 mL) Room Temperature” value is given as 150 g/100 mL.
